According to patent US20230061835A1, “11-OXO CUCURBITANES AND THEIR USE AS FLAVOR MODIFIERS” (Firmenich SA, priority 2020, published 2023):

Key:
[1] = Sensory testing by trained panel: umami taste; type: in vivo, human; conditions: panel of 20 trained panelists; test compound at 40 ppm; score on scale −5 (strong masking) to 5 (strong enhancing), 0 = reference water solution with 0.25% NaCl and 0.05% MSG
Protocol: (§1) Each of Compound 101, Compound 102, Compound 103, Compound 104, and Compound 105 was tested for taste properties, particularly umami and saltiness. A panel of twenty (20) trained panelists evaluated the samples of each test compound at 40 ppm for umami taste properties and saltiness taste properties, and scored the solutions on a scale ranging from −5 to 5 (with −5 denoting a strong masking effect, and 5 denoting a strong enhancing effect, and 0 representing the intensity of a reference water solution containing 0.25% sodium chloride (NaCl) and 0.05% monosodium glutamate (MSG), respectively).

[2] = Sensory testing by trained panel: saltiness taste; type: in vivo, human; conditions: panel of 20 trained panelists; test compound at 40 ppm; score on scale −5 (strong masking) to 5 (strong enhancing), 0 = reference water solution with 0.25% NaCl and 0.05% MSG
Protocol: as §1

## C[C@H](CC[C@@H](O[C@@H]1O[C@H](CO[C@@H]2O[C@H](CO)[C@@H](O)[C@H](O)[C@H]2O)[C@@H](O)[C@H](O)[C@H]1O[C@@H]1O[C@H](CO)[C@@H](O)[C@H](O)[C@H]1O)C(C)(C)O)[C@H]1CC[C@@]2(C)[C@@H]3CC=C4[C@@H](CC[C@H](O[C@@H]5O[C@H](CO[C@@H]6O[C@H](CO)[C@@H](O)[C@H](O)[C@H]6O)[C@@H](O)[C@H](O)[C@H]5O)C4(C)C)[C@]3(C)C(=O)C[C@]12C [Compound 101]
[1]
  Umami: 0.88
[2]
  Saltiness: 0.19

## C[C@H](CC[C@@H](O[C@@H]1O[C@H](CO[C@@H]2O[C@H](CO)[C@@H](O)[C@H](O)[C@H]2O)[C@@H](O)[C@H](O)[C@H]1O[C@@H]1O[C@H](CO)[C@@H](O)[C@H](O)[C@H]1O)C(C)(C)O)[C@H]1CC[C@@]2(C)[C@@H]3CC=C4[C@@H](CC[C@H](O[C@@H]5O[C@H](CO[C@@H]6O[C@H](CO)[C@@H](O)[C@H](O)[C@H]6O)[C@@H](O)[C@H](O)[C@H]5O[C@@H]5O[C@H](CO)[C@@H](O)[C@H](O)[C@H]5O)C4(C)C)[C@]3(C)C(=O)C[C@]12C [Compound 102]
[1]
  Umami: 0.47
[2]
  Saltiness: 0.87

## C[C@H](CC[C@@H](O[C@@H]1O[C@H](CO)[C@@H](O)[C@H](O)[C@H]1O[C@@H]1O[C@H](CO)[C@@H](O)[C@H](O)[C@H]1O)C(C)(C)O)[C@H]1CC[C@@]2(C)[C@@H]3CC=C4[C@@H](CC[C@H](O[C@@H]5O[C@H](CO[C@@H]6O[C@H](CO)[C@@H](O)[C@H](O)[C@H]6O)[C@@H](O)[C@H](O)[C@H]5O)C4(C)C)[C@]3(C)C(=O)C[C@]12C [Compound 103]
[1]
  Umami: 0.69
[2]
  Saltiness: −0.02

## C[C@H](CC[C@@H](O[C@@H]1O[C@H](CO)[C@@H](O)[C@H](O)[C@H]1O[C@@H]1O[C@H](CO)[C@@H](O)[C@H](O)[C@H]1O)C(C)(C)O)[C@H]1CC[C@@]2(C)[C@@H]3CC=C4[C@@H](CC[C@H](O[C@@H]5O[C@H](CO)[C@@H](O)[C@H](O)[C@H]5O)C4(C)C)[C@]3(C)C(=O)C[C@]12C [Compound 104]
[1]
  Umami: 0.42
[2]
  Saltiness: −0.08

## C[C@H](CC[C@@H](O[C@@H]1O[C@H](CO)[C@@H](O)[C@H](O)[C@H]1O)C(C)(C)O)[C@H]1CC[C@@]2(C)[C@@H]3CC=C4[C@@H](CC[C@H](O[C@@H]5O[C@H](CO)[C@@H](O)[C@H](O)[C@H]5O)C4(C)C)[C@]3(C)C(=O)C[C@]12C [Compound 105]
[1]
  Umami: 0.10
[2]
  Saltiness: 0.20
